Tests used:
Salmonella typhi = assay: Kirby-Bauer disc diffusion; format: cell-based; details: reference antibiotic disc (5 μg)
[1] = system: Candida albicans ATCC10231; assay: Kirby-Bauer disc diffusion; format: cell-based; details: reference antibiotic disc (100unit)
Source text: (§1) Experimental procedures include the following steps: • 1.

[2] = system: Cryptococcus neoformans ATCC90112; assay: Kirby-Bauer disc diffusion; format: cell-based; details: reference antibiotic disc (100unit)
Source text: as §1

[3] = system: alloxan induced-diabetic rats; assay: Antihyperglycemic activity: fall in fasting blood glucose in alloxan induced-diabetic rats; format: in vivo, rat

O=C(O)c1cn(C2CC2)c2cc(N3CCNCC3)c(F)cc2c1=O [Cipro, ciprofloxacin]
Zone of inhibition, Sal. typhi (Salmonella typhi): 35 mm

C[C@@H]1[C@H](O)[C@@H](C)/C=C/C=C/CC/C=C/C=C/C=C/C=C/C(O[C@H]2O[C@H](C)[C@@H](O)[C@H](N)[C@@H]2O)CC2O[C@](O)(CC(O)C(O)CCC(O)CC(O)CC(O)CC(=O)O[C@H]1C)CC(O)C2C(=O)O (stereo partly drawn) [Nystatin, nystatin]
Zone of inhibition, C. albicans [1]: 10 mm | Zone of inhibition, C. neoformance [2]: 9 mm

insulin: insulin from bovine pancreas (≧27 units/mg)
FBG ([3]; all insulin-injected rats, after two hours of injection (p<0.001)): sharp significant decrease | FBG difference between normal rats and treated diabetic rats ([3]; at either dose): No significant difference | FBG ([3]; insulin 10 units/kg b.w, after 8 hours of treatment): returned to the diabetic state

From patent US9005667B1, “Treating leukemia with a whole, leech saliva extract” (priority 2012, dated 2015)
